Values quoted from earlier work, collected in patent US20140010802A1, “SYSTEMS AND METHODS FOR DIAGNOSING A PREDISPOSITION TO DEVELOP CANCER” (University of Hawaii, Office of Technology Transfer and …, priority 2011, published 2014).

Test system: MM patients
Details: phase 1 clinical trial, 3 MM patients

Compound: Cc1c(CN2CCN(C(=O)[C@H](C)O)CC2)sc2c(N3CCOCC3)nc(-c3cnc(N)nc3)nc12 [GDC0980]
- anti-tumor effects in patients: anti-tumor effects
